From paper PMC7101422, “N-Phenethyl Substitution in 14-Methoxy-N-methylmorphinan-6-ones Turns Selective µ Opioid Receptor Ligands into Dual µ/δ Opioid Receptor Agonists” (Scientific Reports, 2020)
Read-outs that look alike come from different tables or passages of the source. Marks after values point to notes of the source that are not given here.

Tests used:
human µOR [1] = target: T1, human µOR (Homo sapiens, UniProt P35372); test: biochemical; assay type: binding
T1 construct: host or cells: CHO cells (CHO-hµOR; CHO-hµOR-p22F for the cAMP assay)
T1 sequence (P35372 whole entry): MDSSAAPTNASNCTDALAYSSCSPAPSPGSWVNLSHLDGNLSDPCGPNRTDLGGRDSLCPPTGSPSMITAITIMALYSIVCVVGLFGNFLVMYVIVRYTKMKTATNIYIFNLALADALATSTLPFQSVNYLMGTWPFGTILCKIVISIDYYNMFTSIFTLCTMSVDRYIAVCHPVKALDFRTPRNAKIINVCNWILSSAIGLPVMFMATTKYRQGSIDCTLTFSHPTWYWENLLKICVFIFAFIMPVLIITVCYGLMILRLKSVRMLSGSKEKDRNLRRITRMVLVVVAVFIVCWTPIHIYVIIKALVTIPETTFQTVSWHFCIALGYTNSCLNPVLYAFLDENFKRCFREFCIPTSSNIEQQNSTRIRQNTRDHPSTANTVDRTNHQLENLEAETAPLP

human δOR [2] = target: T2, human δOR (Homo sapiens, UniProt P41143); test: [35S]GTPγS binding assay, CHO-hδOR membranes; assay type: biochemical; settings: for δOR % stim. / fold higher δOR agonist potency vs. N-methyl counterpart: [35S]GTPγS binding; for δOR % stim.: relative to DPDPE; for fold higher δOR agonist potency vs. N-methyl counterpart: vs. 14-OMO (3) and 14-MM (4)
T2 construct: host or cells: CHO cells (CHO-hδOR; CHO-hδOR-p22F for the cAMP assay)
T2 sequence (P41143 whole entry): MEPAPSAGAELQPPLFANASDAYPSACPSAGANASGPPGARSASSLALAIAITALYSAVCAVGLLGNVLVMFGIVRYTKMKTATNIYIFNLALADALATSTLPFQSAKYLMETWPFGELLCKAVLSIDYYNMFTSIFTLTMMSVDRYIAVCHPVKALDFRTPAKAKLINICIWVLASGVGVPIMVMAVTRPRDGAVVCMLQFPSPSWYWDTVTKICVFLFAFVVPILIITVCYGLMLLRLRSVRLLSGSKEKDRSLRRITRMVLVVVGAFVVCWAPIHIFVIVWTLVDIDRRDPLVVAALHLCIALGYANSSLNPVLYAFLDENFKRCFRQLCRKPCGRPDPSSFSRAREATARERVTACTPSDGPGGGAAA

human µOR [3] = target: T1, human µOR; test: cell-based; assay type: cell-based; settings: for Emax: read-out: µOR % stim.
human δOR [4] = target: T2, human δOR; test: Forskolin-induced cAMP accumulation assay, CHO-hδOR-p22F cells; assay type: cell-based; settings: for Emax: read-out: δOR % stim.
human δOR [5] = target: T2, human δOR; test: Competition binding assay, CHO-hδOR cell membranes ([3H]Diprenorphine)
human µOR [6] = target: T1, human µOR; test: [35S]GTPγS binding assay, CHO-hµOR membranes; assay type: biochemical; settings: for µOR % stim.: [35S]GTPγS binding, relative to DAMGO
mice [7] = test: Rotarod assay in mice; assay type: in vivo; settings: 30 min after s.c. administration, doses equivalent to a 3- to 4-fold the antinociceptive ED50 dose
human κOR [8] = target: T3, human κOR (Homo sapiens, UniProt P41145); test: [35S]GTPγS binding assay, CHO-hκOR membranes; assay type: biochemical; settings: for κOR % stim.: [35S]GTPγS binding, relative to U69,593
T3 construct: host or cells: CHO cells (CHO-hκOR)
T3 sequence (P41145 whole entry): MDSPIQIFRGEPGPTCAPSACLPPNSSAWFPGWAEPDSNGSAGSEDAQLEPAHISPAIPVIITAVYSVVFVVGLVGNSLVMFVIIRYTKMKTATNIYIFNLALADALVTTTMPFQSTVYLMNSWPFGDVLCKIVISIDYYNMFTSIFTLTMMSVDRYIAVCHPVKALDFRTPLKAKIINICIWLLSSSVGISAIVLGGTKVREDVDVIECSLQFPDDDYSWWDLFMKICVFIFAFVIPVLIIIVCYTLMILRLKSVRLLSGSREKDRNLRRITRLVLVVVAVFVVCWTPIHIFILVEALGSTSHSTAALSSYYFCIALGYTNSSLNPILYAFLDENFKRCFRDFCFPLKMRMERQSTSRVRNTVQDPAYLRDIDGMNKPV

human κOR [9] = target: T3, human κOR; test: biochemical; assay type: binding
mice [10] = test: Radiant heat tail-flick test in mice; assay type: in vivo; settings: Mus musculus, sc, 0.5 h, s.c., at 30 min (peak effect), n = 5–6 mice per group, read-out: ED50 (95% CL)
mice [11] = settings: s.c., cited from earlier work; for ED50 (95% CL): tail-flick, at 30 min (peak effect)
human µOR [12] = target: T1, human µOR; settings: cited from earlier work
human κOR [13] = target: T3, human κOR; settings: cited from earlier work
human δOR [14] = target: T2, human δOR; settings: [35S]GTPγS binding; relative to DPDPE; cited from earlier work
mice [15] = settings: hot-plate test, s.c.; cited from earlier work

SMILES	Ki (human µOR [1])	Ki ratio δOR/µOR (human µOR [1])	Ki ratio κOR/µOR (human µOR [1])	EC50 (human δOR [2])	δOR % stim. (human δOR [2])	EC50 (human µOR [3])	Emax (human µOR [3])	EC50 (human δOR [4])	Emax (human δOR [4])	Ki (human δOR [5])	EC50 (human µOR [6])	µOR % stim. (human µOR [6])	effect on motor coordination (rotarod performance) (mice [7])	EC50 (human κOR [8])	κOR % stim. (human κOR [8])	Ki (human κOR [9])	ED50 (mice [10])	ED50 (95% CL) (mice [11])	also measured
CO[C@@]12CCC(=O)[C@@H]3Oc4c(O)ccc5c4[C@@]31CCN(CCc1ccccc1)[C@@H]2C5 [Compound 3a, 4,5α-Epoxy-3-hydroxy-14-methoxy-N-phenethylmorphinan-6-one]	0.19 ± 0.02 nM	9.5	83	9.34 ± 0.6 nM	107 ± 5%	0.078 ± 0.004 nM	88 ± 12%	0.6 ± 0.07 nM	93 ± 2%	1.81 ± 0.68 nM	1.26 ± 0.63 nM	98 ± 10%	lack of the mixed µ/δOR agonists 3a and 4a to induce motor dysfunction	144 ± 9 nM	35.4 ± 7.5 %	15.8 ± 8.8 nM	0.014 mg/kg	–	fold higher δOR agonist potency vs. N-methyl counterpart (human δOR [2]): 4 fold; melting point: 180 to 182 °C
CO[C@@]12CCC(=O)[C@]3(C)Oc4c(O)ccc5c4[C@@]31CCN(C)[C@@H]2C5 [14-MM (4), 14-methoxymetopon, reference compound]	–	74	51	36.8 ± 12.4 nM	100 ± 9%	0.31 ± 0.07 nM	93 ± 5%	4.06 ± 0.89 nM	99 ± 8%	18.6 ± 0.98 nM	2.66 ± 0.58 nM	99 ± 5%	–	181 ± 9 nM	68.9 ± 9.2%	12.8 ± 1.5 nM	0.024 mg/kg	–	Ki (human µOR [1]; read-out: Ki µOR): 0.25 ± 0.04 nM
CN1CC[C@]23c4c5ccc(O)c4O[C@H]2C(=O)CC[C@@]3(O)[C@H]1C5 [Oxymorphone (2), oxymorphone, reference compound]	–	–	–	–	–	–	–	–	–	–	–	–	caused a significant deficit in rotarod performance	–	–	–	–	0.35 (0.16–0.77)^b mg/kg	–
CO[C@@]12CCC(=O)[C@]3(C)Oc4c(O)ccc5c4[C@@]31CCN(CCc1ccccc1)[C@@H]2C5 [Compound 4a, 4,5α-Epoxy-3-hydroxy-14-methoxy-5-methyl-N-phenethylmorphinan-6-one]	0.24 ± 0.03 nM	6.0	147	9.54 ± 2.33 nM	103 ± 2%	0.15 ± 0.07 nM	98 ± 12%	0.55 ± 0.16 nM	96 ± 4%	1.45 ± 0.31 nM	1.86 ± 0.84 nM	102 ± 13%	lack of the mixed µ/δOR agonists 3a and 4a to induce motor dysfunction	334 ± 114 nM	51.3 ± 10.4%	35.3 ± 5.5 nM	0.024 mg/kg	–	fold higher δOR agonist potency vs. N-methyl counterpart (human δOR [2]): 4 fold; fold decrease in κOR affinity vs. N-methyl parent (human κOR [9]): ca. 3 fold; melting point: 179 to 180 °C
O=C1CC[C@@]2(O)[C@H]3Cc4ccc(O)c5c4[C@@]2(CCN3CCc2ccccc2)[C@H]1O5 [Compound 2a]	–	–	–	–	–	–	–	–	–	–	–	–	did not affect the evoked locomotor activity of mice	–	–	–	–	0.15 (0.058–0.40)^b mg/kg	–
CO[C@@]12CCC(=O)[C@@H]3Oc4c(O)ccc5c4[C@@]31CCN(C)[C@@H]2C5 [14-OMO (3), 14-O-methyloxymorphone, reference compound]	0.27 ± 0.09 nM	34	38	38.5 ± 6.9 nM	102 ± 4%	0.19 ± 0.14 nM	90 ± 8%	5.42 ± 0.93 nM	98 ± 3%	9.08 ± 0.31 nM	1.21 ± 0.48 nM	95 ± 5%	–	135 ± 29 nM	65.9 ± 6.5%	10.3 ± 1.8 nM	0.014 mg/kg	–	–
Oc1ccc2c3c1O[C@H]1[C@@H](O)C=C[C@H]4[C@@H](C2)N(CCc2ccccc2)CC[C@@]341 [Compound 1a]	0.25 ± 0.09 nM	98	374	–	–	2.87 ± 0.91 nM	107 ± 5%	315 ± 110 nM	105 ± 8%	24.5 ± 8.7 nM	–	–	did not affect the evoked locomotor activity of mice	–	–	93.5 ± 2.9 nM	–	0.11 (0.027–0.40)^b mg/kg	fold higher antinociceptive potency vs. N-methyl parent (mice [11]; tail-flick test): 28 fold; fold increased affinity at the human µOR vs. N-methyl parent (human µOR [1]): ca. 13 fold; fold increase in µOR agonist potency vs. N-methyl parent (human µOR [12]): 2- to 3 fold; µOR % stim. (human µOR [12]): 113 ± 8^b %; κOR % stim. (human κOR [13]): 19 ± 2^b*** %; fold enhanced µOR agonist potency vs. N-methyl parent (human µOR [3]): 4- to 5 fold; δOR % stim. (human δOR [14]): 138 ± 17^b %; fold more effective than morphine (antinociception) (mice [15]): 22 fold
CN1CC[C@]23c4c5ccc(O)c4O[C@H]2[C@@H](O)C=C[C@H]3[C@H]1C5 [Morphine (1), Morphine, reference compound]	–	–	–	–	–	–	–	–	–	–	–	–	caused a significant deficit in rotarod performance	–	–	–	–	–	–
